According to ChEMBL document CHEMBL1201862, “PubChem BioAssay data set” (2004):
Activity calls are given as the source filed them.

What was measured:
Vibrio harveyi [1] = assay: LuxS/LuxPQ-dependent luminescence inhibition, V. harveyi – dry powder, set 2, dose response (AID 493072); type: functional, organism-based
Vibrio harveyi [2] = assay: Quorum Sensing, LuxS, LuxPQ Measured in Microorganism System Using Plate Reader - 2035-01_Inhibitor_DoseNoFile_DryPowder_Activity. [Related pubchem assays (depositor defined):AID2106]; type: functional, organism-based
[3] = biological target: Dual specificity protein phosphatase 3 (Homo sapiens, UniProt P51452); assay: SAR VHR1 Fluorescent Assay for In Vitro dose response studies Set 2. [Related pubchem assays (depositor defined):AID1654, AID1661, AID1878]; type: functional
[4] = biological target: T1, Tyrosine-protein phosphatase non-receptor type 7 (Homo sapiens, UniProt P35236); assay: SAR analysis of chemical inhibitors of HePTP using a Fluorescent assay - Set 2. [Related pubchem assays (depositor defined):AID1059, AID1077, AID1661, AID2085, AID521]; type: functional
T1 sequence (P35236 whole entry): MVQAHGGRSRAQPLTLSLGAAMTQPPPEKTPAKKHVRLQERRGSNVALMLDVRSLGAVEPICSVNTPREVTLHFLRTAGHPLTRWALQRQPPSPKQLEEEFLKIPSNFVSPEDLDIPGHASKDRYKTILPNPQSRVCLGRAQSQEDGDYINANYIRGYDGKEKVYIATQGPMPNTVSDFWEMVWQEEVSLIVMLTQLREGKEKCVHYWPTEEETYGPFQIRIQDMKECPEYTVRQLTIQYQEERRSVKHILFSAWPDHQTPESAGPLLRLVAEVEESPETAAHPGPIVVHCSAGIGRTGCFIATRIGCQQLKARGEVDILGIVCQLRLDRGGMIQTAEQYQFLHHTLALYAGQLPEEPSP

HEK293 [5] = assay: cells; type: functional, cell-based; details: Homo sapiens
[6] = NIH3T3 cell viability loss – ATP luminescence, mouse fibroblasts, counter-screen, dose response (AID 2010); type: functional, cell-based;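 also: cells exposed to compound for about 90 hours before reading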
Mucolipin-3 = Mucolipin-3 (Homo sapiens, UniProt Q8TDD5); assay: Fluorescence counterscreen assay for […] agonists: dose response cell-based high-throughput screening assay to identify agonists of the transient receptor potential channel ML3 (TRPML3). [Related pubchem assays: 1424, 1448 ]; type: functional
Ion channel NompC = Ion channel NompC (Danio rerio, UniProt Q7T1G6); assay: Dose response cell-based high-throughput screening assay for agonists of the transient receptor potential channel N1 (TRPN1). [Related pubchem assays (depositor defined):AID1424, AID1448]; type: functional
[7] = biological target: T2, Calpain-2 catalytic subunit (Sus scrofa, UniProt P43367); assay: m-calpain protease blockers, concentration series – biochemical, fluorogenic peptide substrate, dose response (AID 1420); type: functional
T2 sequence (P43367 whole entry): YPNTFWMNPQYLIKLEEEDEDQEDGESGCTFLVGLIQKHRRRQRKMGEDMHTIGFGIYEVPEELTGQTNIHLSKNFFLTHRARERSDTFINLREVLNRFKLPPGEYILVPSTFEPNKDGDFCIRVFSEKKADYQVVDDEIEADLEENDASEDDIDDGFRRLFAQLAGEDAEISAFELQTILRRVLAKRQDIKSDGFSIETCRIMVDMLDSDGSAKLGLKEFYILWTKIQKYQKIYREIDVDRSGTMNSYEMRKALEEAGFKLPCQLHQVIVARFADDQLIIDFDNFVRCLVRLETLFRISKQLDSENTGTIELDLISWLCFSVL

HEK293 [8] = assay: NOD2 signaling inhibitors in MDP-stimulated cells, cell-based, uHTS, luminescence (AID 2001); type: functional; details: Homo sapiens
HEK293 [9] = assay: cells; type: functional, cell-based; details: Homo sapiens; remark: listed apart in the source
[10] = Trypanosoma cruzi growth suppression in host cells – NIH3T3 host cells, beta-gal luminescence, confirmation (AID 2044); type: functional, cell-based;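 also: intracellular parasites grown in NIH/3T3 mouse fibroblasts as host cells; luminescent beta-galactosidase reporter signal from transgenic T. cruzi replicating inside host cells; inhibitors lower the luminescence signal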
HEK293 [11] = assay: inhibition of NOD1-driven NF-kB reporter – cell-based, luminescence, uHTS, primary screen (AID 1578); type: functional; details: Homo sapiens
Coagulation factor XII = biological target: T3, Coagulation factor XII (Homo sapiens, UniProt P00748); assay: activated coagulation factor XII inhibitor potency, concentration-effect curve, cell-free (AID 716); type: functional
T3 sequence (P00748 whole entry): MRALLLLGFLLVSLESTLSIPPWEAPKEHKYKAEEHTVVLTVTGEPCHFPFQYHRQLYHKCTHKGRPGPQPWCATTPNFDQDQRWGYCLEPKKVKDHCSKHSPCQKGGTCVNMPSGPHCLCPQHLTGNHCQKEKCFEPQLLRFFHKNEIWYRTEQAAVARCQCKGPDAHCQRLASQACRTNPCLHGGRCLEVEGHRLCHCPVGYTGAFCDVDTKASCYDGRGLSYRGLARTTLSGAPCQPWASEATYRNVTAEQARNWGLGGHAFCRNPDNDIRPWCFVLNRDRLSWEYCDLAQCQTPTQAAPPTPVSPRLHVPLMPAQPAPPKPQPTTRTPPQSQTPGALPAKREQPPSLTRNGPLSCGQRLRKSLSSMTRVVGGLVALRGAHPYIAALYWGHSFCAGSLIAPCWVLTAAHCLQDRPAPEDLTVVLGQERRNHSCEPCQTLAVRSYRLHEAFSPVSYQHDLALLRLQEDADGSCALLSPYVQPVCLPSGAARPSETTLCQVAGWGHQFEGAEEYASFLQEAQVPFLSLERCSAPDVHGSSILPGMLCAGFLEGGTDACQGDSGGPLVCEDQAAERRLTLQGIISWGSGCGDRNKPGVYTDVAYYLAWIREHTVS

Cytochrome P450 2C19 = Cytochrome P450 2C19 (Homo sapiens, UniProt P33261); assay: Cytochrome panel assay with activity outcomes. Panel member name: p450-cyp2c19 Compounds with AC50 equal or less than 10 uM are considered active; type: functional; details: read-out: AC50
Cannabinoid receptor 1 [12] = biological target: T4, Cannabinoid receptor 1 (Homo sapiens, UniProt P21554); assay: SAR analysis of antagonists of the Cannabinoid Receptor 1 using an Image-Based Assay - Set 3. [Related pubchem assays (depositor defined):AID1961, AID1965]; type: functional
[13] = biological target: T5, G-protein coupled receptor 35 (Homo sapiens, UniProt Q9HC97); assay: SAR analysis of Agonists of the GPR35 Receptor using an Image-Based Assay - Set 3. [Related pubchem assays (depositor defined):AID1961, AID1965]; type: functional
[14] = biological target: T5, G-protein coupled receptor 35; assay: SAR analysis of Antagonists of the GPR35 Receptor using an Image-Based Assay - Set 4. [Related pubchem assays (depositor defined):[…]]; type: functional
Cannabinoid receptor 1 [15] = biological target: T4, Cannabinoid receptor 1; assay: SAR analysis of agonists of the Cannabinoid Receptor 1 using an Image-Based Assay - Set 3. [Related pubchem assays (depositor defined):AID1961, AID1965]; type: functional
Cannabinoid receptor 2 [16] = biological target: T6, Cannabinoid receptor 2 (Homo sapiens, UniProt P34972); assay: SAR analysis of antagonists of the Cannabinoid Receptor 2 using an Image-Based Assay - Set 2. [Related pubchem assays (depositor defined):AID1961, AID1965]; type: functional
Cannabinoid receptor 2 [17] = biological target: T6, Cannabinoid receptor 2; assay: SAR analysis of agonists of the Cannabinoid Receptor 2 using an Image-Based Assay - Set 2. [Related pubchem assays (depositor defined):AID1961, AID1965]; type: functional
[18] = biological target: G-protein coupled receptor 55 (Homo sapiens, UniProt Q9Y2T6); assay: SAR analysis of selective Agonists of GPR55 using an Image-Based Assay - Set 2. [Related pubchem assays (depositor defined):AID1961, AID1965]; type: functional
Chain of G-protein coupled receptor 55 (Q9Y2T6 whole entry): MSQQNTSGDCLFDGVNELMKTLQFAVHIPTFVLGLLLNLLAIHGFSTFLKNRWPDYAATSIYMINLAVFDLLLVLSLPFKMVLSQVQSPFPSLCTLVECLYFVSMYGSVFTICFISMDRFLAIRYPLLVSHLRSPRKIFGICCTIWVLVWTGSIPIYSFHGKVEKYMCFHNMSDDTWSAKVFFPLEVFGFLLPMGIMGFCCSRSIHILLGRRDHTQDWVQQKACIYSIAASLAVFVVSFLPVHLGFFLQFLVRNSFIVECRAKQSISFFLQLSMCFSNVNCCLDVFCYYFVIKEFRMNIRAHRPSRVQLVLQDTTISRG

T5 sequence (Q9HC97 whole entry): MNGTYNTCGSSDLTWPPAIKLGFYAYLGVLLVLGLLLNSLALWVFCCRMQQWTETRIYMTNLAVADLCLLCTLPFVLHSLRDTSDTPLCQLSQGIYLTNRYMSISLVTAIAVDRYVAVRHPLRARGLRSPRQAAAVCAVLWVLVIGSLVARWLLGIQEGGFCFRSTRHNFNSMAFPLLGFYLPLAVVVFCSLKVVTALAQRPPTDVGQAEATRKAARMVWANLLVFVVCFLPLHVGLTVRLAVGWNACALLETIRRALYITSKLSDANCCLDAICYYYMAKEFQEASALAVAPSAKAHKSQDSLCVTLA
T4 sequence (P21554 whole entry): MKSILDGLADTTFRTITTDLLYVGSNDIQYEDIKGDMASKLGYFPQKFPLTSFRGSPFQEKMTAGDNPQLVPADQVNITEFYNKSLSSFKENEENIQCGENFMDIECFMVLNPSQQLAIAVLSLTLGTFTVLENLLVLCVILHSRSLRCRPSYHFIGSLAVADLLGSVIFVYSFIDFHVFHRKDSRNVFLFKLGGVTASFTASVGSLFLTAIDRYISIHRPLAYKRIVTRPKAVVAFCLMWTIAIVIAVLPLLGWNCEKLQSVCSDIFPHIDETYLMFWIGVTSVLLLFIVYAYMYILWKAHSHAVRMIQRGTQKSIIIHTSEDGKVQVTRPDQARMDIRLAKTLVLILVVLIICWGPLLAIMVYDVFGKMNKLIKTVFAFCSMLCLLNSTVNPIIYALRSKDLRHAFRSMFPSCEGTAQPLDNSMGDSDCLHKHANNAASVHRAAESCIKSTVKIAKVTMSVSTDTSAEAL
T6 sequence (P34972 whole entry): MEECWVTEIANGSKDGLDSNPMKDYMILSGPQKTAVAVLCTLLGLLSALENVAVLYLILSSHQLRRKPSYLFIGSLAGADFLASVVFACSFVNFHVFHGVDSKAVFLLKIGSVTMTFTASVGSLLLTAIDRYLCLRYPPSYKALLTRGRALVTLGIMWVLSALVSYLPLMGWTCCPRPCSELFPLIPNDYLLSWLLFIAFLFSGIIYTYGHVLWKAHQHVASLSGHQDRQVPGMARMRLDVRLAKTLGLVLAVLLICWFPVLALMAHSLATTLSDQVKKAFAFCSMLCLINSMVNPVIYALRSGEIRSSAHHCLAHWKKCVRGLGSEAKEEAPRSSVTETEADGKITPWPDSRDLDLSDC
Chain of Mucolipin-3 (Q8TDD5 whole entry): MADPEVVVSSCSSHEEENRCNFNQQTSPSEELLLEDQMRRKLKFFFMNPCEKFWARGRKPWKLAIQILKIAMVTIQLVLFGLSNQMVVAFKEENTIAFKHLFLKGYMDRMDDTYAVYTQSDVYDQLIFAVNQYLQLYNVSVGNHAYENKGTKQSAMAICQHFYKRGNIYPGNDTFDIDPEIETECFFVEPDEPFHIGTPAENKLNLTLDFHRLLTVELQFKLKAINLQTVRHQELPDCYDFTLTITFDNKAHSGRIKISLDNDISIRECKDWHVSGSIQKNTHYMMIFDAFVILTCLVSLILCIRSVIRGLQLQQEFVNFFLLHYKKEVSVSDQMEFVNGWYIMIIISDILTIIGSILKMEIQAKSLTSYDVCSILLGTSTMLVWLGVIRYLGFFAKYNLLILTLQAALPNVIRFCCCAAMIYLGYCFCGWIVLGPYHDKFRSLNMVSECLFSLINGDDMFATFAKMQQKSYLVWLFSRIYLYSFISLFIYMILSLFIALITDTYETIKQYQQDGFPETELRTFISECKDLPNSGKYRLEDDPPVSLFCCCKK
Chain of Ion channel NompC (Q7T1G6 whole entry): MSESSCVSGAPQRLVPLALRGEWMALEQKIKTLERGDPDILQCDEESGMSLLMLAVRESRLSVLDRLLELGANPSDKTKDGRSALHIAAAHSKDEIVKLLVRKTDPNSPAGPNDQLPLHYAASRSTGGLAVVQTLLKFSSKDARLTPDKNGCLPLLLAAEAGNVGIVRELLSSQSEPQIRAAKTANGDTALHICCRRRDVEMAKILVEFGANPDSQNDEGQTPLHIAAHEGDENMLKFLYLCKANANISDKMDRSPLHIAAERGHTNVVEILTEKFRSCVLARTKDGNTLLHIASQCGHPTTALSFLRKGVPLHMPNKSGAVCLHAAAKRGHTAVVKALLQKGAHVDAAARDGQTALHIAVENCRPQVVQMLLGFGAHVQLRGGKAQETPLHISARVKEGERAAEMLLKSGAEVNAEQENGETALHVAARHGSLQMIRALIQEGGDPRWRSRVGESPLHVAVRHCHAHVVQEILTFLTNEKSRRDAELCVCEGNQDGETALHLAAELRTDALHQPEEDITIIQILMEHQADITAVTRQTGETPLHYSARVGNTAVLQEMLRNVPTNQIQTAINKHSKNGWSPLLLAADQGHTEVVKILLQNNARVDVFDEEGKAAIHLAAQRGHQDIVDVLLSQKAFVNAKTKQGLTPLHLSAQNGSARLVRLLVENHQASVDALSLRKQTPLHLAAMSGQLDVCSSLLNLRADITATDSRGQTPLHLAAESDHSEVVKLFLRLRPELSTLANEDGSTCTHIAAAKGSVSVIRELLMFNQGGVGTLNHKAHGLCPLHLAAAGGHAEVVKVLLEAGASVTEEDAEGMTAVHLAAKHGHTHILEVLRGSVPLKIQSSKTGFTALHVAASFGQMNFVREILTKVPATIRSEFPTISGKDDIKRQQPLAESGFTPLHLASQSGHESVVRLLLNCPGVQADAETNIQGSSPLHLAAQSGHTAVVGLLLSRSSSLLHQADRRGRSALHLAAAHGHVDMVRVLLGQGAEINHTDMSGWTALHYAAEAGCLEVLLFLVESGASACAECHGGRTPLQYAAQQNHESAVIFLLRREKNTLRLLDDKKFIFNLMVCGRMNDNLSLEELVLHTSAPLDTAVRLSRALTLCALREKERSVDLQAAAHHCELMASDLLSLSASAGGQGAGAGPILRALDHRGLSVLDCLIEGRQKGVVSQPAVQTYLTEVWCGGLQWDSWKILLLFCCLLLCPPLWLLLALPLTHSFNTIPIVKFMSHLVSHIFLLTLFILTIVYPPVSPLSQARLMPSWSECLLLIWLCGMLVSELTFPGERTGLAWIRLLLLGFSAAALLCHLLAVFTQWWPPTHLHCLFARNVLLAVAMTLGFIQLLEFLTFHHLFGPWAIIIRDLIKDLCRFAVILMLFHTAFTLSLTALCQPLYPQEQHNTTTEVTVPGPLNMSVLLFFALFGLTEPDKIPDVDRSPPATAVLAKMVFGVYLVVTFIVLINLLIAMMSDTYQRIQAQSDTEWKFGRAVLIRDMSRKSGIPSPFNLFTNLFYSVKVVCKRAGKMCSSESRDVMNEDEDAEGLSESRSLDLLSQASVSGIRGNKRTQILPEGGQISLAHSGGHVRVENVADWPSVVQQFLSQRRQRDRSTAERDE
Chain of Dual specificity protein phosphatase 3 (P51452 whole entry): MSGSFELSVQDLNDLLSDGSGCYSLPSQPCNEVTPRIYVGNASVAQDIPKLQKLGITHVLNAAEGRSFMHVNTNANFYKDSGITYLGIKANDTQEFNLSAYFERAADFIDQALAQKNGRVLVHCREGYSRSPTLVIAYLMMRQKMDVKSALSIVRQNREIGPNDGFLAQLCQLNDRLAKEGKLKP
Chain of Cytochrome P450 2C19 (P33261 whole entry): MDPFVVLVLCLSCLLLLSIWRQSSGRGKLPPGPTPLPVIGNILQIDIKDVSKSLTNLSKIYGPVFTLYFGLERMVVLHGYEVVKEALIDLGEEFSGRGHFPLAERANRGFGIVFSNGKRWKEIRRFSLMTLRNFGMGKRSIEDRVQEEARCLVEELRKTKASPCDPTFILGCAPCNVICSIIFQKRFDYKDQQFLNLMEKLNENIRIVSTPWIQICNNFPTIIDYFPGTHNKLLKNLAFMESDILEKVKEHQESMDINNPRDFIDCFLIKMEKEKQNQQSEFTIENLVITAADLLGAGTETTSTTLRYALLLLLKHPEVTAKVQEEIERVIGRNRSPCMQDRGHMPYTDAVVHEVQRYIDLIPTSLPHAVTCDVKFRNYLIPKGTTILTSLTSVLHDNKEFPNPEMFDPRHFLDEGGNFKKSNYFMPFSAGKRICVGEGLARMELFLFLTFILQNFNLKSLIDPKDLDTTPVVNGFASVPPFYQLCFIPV

## CCc1ccc(S(=O)(=O)Nc2ccc(Br)cn2)cc1
Vibrio harveyi [1]
  AC50: 8.16 µM (active)
Vibrio harveyi [2]
  AC50: 3.22 µM (active)

## Fc1ccc(CNC(=S)c2ccc(Br)cc2)cc1C(F)(F)F
[3]
  IC50: 19.3 µM (active)
[4]
  IC50: 23.4 µM (active)

## O=C(Cc1ccc(Cl)cc1)Nc1ncc([N+](=O)[O-])s1
HEK293 [5]
  IC50: 9.12 µM (active)
[6]
  EC50: > 60 µM (inconclusive)
Mucolipin-3
  EC50: > 29.9 µM (not active)
Ion channel NompC
  EC50: > 29.9 µM (inactive)
[7]
  IC50: < 0.4 µM (not active)
HEK293 [8]
  IC50: 10.9 µM (inactive)
HEK293 [9]
  IC50: > 20 µM (inactive)
[10]
  EC50: 0.589 µM (active)
HEK293 [11]
  EC50: 4.23 µM (active)

## CCOC(=O)N1CCN(C(=O)c2ccc(Cl)c(S(=O)(=O)N3CCOCC3)c2)CC1
Coagulation factor XII
  IC50: > 50 µM (inactive)
Cytochrome P450 2C19
  AC50: 39.8 µM (inconclusive)

## CN(C)S(=O)(=O)c1ccc(N2CCCC2)c(C(=O)N2CCN(c3cccc(Cl)c3)CC2)c1
Cannabinoid receptor 1 [12]
  IC50: 27.1 µM (inactive)
[13]
  EC50: > 32 µM (inactive)
[14]
  IC50: > 32 µM (inactive)
Cannabinoid receptor 1 [15]
  EC50: > 32 µM (inactive)
Cannabinoid receptor 2 [16]
  IC50: > 32 µM (inactive)
Cannabinoid receptor 2 [17]
  EC50: > 32 µM (inactive)
[18]
  EC50: 0.608 µM (active)
